Common to all, as to type: cell-based
Experiment [1] relates to GSC-3diff. In words: MTS cell viability assay, differentiated glioblastoma stem cells GSC-3diff. To be noted: Table 7, 72 hours, read-out: IC50 against GSC-3diff. How it is done:
(§1) Primary viability screening: (1) the synthesized compounds 3a to 13d were respectively dissolved in DMSO to prepare a 40 μg/mL cannabicyclol and cannabicyclol derivative solutions.
(§2) (2) A control group: a 200 μL DMSO solvent.
(§3) (3) The solutions of compounds 3a to 13d were diluted in a twofold gradient to obtain cannabicyclol and cannabicyclol derivative solutions at concentrations of 40 μg/mL, 20 μg/mL, 10 μg/mL, 5 μg/mL, 2.5 μg/mL, 1.25 μg/mL, and 0.625 μg/mL, and 0.3125 μg/mL, respectively.
(§4) (4) Three glioblastoma stem cells (GSC-3, GSC-12, and GSC-18), three pancreatic cancer cell-derived stem cells (PANC-1-CSC, BXPC-3-CSC, and ASPC1-CSC), three liver cancer cell-derived stem cells (HepG2-CSC, MHCC97H-CSC, and SMMC7721-CSC), HEK-293T cells, 16 tumor cells (U251, U87, T98G, PANC1, BXPC3, ASPC1, HepG2, MHCC97H, SMMC7721, PC3, SKOV3, MDA-MB231, A549, HCT116, HEC-1B, MKN28), and differentiated glioblastoma stem cells (GSC-3diff and GSC-12diff) derived from GSC-3 and GSC-12 (all of the cells were provided by the Laboratory of Tumor Animal Model Preparation and Application Research, West China Hospital, Sichuan University) were inoculated into a 96-well plate at a concentration of 2×10^4 cells/well, and 100 μL of culture medium was then added to each well; […]
(§5) (10) The absorbance value at 490 nm was measured on an enzyme labeling apparatus, and the IC50 value was calculated.
(In general: Formazan colour is commonly taken as a measure of viable cells.)

Experiment [2] deals with ASPC1-CSC. In words: MTS cell viability assay, ASPC1-CSC. The settings on record: Table 6, tumor stem cell, 72 hours; read-out: IC50 against ASPC1-CSC. How it is done:
as §1, §2, §3, §4, §5

Experiment [3] concerns U87. In words: MTS cell viability assay, U87. The settings on record: Homo sapiens, U-87 MG; Table 7, 72 hours; read-out: IC50 against U87. Here is the method: as §1, §2, §3, §4, §5
Experiment [4] deals with HCT116. The experiment in a line: MTS cell viability assay, HCT116. To be noted: Homo sapiens, HCT-116; Table 7, 72 hours; read-out: IC50 against HCT116. Here is the method: as §1, §2, §3, §4, §5
In experiment [5] the test system is GSC-3. In words: Soft agar colony (clone) formation, GSC-3. To be noted: crystal violet, FIG. 4, compound 3a 0, 5 and 5 [sic] μg/mL. How it is done:
[…] of low-melting-point agarose was dissolved in 12.5 mL of ddH2O to prepare a 3.2% low-melting-point agarose gel. The low-melting-point agarose gel was sterilized by autoclaving at 121° C. and 0.12 MPa for 20 minutes. After sterilization, the low-melting-point agarose gel was maintained at 60° C. in a drying oven for further use.
1.75 mL of 3.2% sterile low-melting-point agarose gel was taken, 5.25 mL of the corresponding complete medium was added, and the two were mixed thoroughly using a pipette to prepare a base gel at a concentration of 0.8%.
1 mL of the base gel was added to each well of a 6-well plate, ensuring that the base gel evenly covered the bottom of each well. The plate was placed at 4° C. for 5 minutes to allow the gel to solidify. After the gel had fully solidified, the plate was warmed at 37° C. for 5 minutes.
6 cells/cell lines (U251, SMMC7721, GSC-3, GSC-12, SMMC7721-CSC, and HepG2-CSC) were individually digested with 1× trypsin for 3 minutes. The corresponding complete culture medium (same as in the application example 1) was added to terminate the digestion. Cells were centrifuged at 1000 rpm for 3 minutes, and the cells were collected and counted. A total of 5×10^3 cells were added to each well, each group was set up with three replicates. […]

Experiment [6] concerns GSC-12. In words: MTS cell viability assay, GSC-12. To be noted: GSC12; Table 6, tumor stem cell, 72 hours; read-out: IC50 against GSC-12. How it is done: as §1, §2, §3, §4, §5
Experiment [7] concerns ASPC1. In words: MTS cell viability assay, ASPC1. To be noted: Homo sapiens, Table 7, 72 hours, read-out: IC50 against ASPC1. Here is the method: as §1, §2, §3, §4, §5
For experiment [8], the system named is HepG2-CSC. In words: MTS cell viability assay, HepG2-CSC. The settings on record: Table 6, tumor stem cell, 72 hours; read-out: IC50 against HepG2-CSC. Here is the method: as §1, §2, §3, §4, §5
For experiment [9], the system named is MHCC97. In words: MTS cell viability assay, MHCC97. To be noted: Homo sapiens, Table 7, 72 hours, read-out: IC50 against MHCC97. How it is done:
as §1, §2, §3, §4, §5

Experiment [10] relates to HepG2. The experiment in a line: MTS cell viability assay, HepG2. The settings on record: Homo sapiens, Table 7, 72 hours, read-out: IC50 against HepG2. How it is done:
as §1, §2, §3, §4, §5

≈ marks a conversion by molar mass, not a printed value.

The term IC50 denotes the concentration at which inhibition is half-maximal. Regarding `CCCCCc1cc(O)c2c(c1)OC1(C)CCC3C1C2C3(C)C` (stereo not shown) [Compound 3a, cannabicyclol], the IC50 was 23.5 mg/L (≈ 74.7 µM) in [1]; 14.6 mg/L (≈ 46.3 µM) in [2]; above 40 mg/L in experiment [3]; above 40 mg/L in experiment [4]; 8.03 mg/L (≈ 25.5 µM) in experiment [6]; above 40 mg/L in experiment [7]. Also, the IC50 in experiment [8] was 2.37 mg/L (≈ 7.54 µM); in experiment [9], above 40 mg/L; in experiment [10], above 40 mg/L. Moreover, the “colony formation of GSC-3” value in experiment [5] is listed as “significantly inhibited”.

Values taken from patent US20250353825A1, “CANNABICYCLOL DERIVATIVES AND PREPARATION METHODS THEREOF” (priority 2023, published 2025).
